Measured values as given in patent EP0308279A1, “Water-soluble polysaccharides, process for obtaining them, their use as medicaments and a preparation containing them” (LIPHA, LYONNAISE INDUSTRIELLE PHARMACEUTIQUE, priority 1987, dated 1989).

Test system: macrophages alvéolaires de rats Kyoto
Assay: Activation of alveolar macrophages (cytostatic/cytotoxic activity towards tumour target cells, tritiated thymidine incorporation)
Type: cell-based, rat
Settings: mean of 3 measurements
Experimental: Ce test met en évidence le phénomène d'activation des macrophages par une mesure de leur activité cytostatique ou cytotoxique envers des cellules de lignée tumorale.
Le test de mesure de l'activation des macrophages consiste à traiter une culture de macrophages alvéolaires ou péritonéaux de rat ou de souris ou de monocytes humaines par des doses des polysaccharides de l'invention variant entre 0,001 et 50 µg/ml. Il est réalisé de la manière suivante :
10⁵ macrophages de souris de souche Balb c, Swiss, C57/B16 ou DBA/2 ou de rat de souche Kyoto ou Wistar sont placés dans une plaque de microtitration dans du milieu de culture complété ou non par du sérum artificiel et de 1 à 10 µg/ml de polymyxine.
On ajoute les polysaccharides de l'invention ou le tampon correspondant sans polysaccharides comme contrôle négatif. Les cellules sont incubées 24 heures à 37°C. On élimine ensuite le surnageant et lave les cellules avec du milieu de culture.
On ajoute alors les cellules cibles tumorales L1210 ou P815 dans du milieu complet. Le rapport macrophages/cellules cibles est de 10. On incube alors la culture durant 24 heures à 37°C. Puis on ajoute 1 - 2 x 10⁴Bq de thymidine tritiée par puits. Les cellules sont récupérées après 4 heures d'incubation à 37°C sur un filtre en fibre de verre. Après séchage des filtres, la radioactivité est mesurée en présence d'un mélange scintillant.
Les résultats correspondent à une moyenne de 3 mesures. Le pourcentage d'activation est exprimé : [formula] R : radioactivité incorporée par les cellules tumorales cultivées en présence de macrophages de référence. S : radioactivité incorporée par les cellules tumorales cultivées en présence de macrophages stimulés.

`CC(=O)N[C@H]1C(O)O[C@H](CO)[C@@H](O)[C@@H]1O[C@H](C)C(=O)N[C@@H](C)C(=O)N[C@H](CCC(=O)O)C(N)=O` (mixture of isomers) [Muramyl dipeptide (MDP), Muramyl dipeptide] was tested, and the “% d'activation des macrophages alvéolaires de rats Kyoto.” value (dose 0,01 µg/ml) was 28%, the “% d'activation des macrophages alvéolaires de rats Kyoto.” value (dose 1 µg/ml) was 90% and the “% d'activation des macrophages alvéolaires de rats Kyoto.” value (dose 10 µg/ml) was 92%.
